In patent US20230139171A1 (SITA Information Networking Computing UK Limited, priority 2019, published 2023):

Key:
Type in all cases: cell-based
human TLR7 = target: T1, human TLR7 (Homo sapiens, UniProt Q9NYK1); experiment: TLR7 inhibition reporter assay (HEK-Blue cells, SEAP reporter, gardiquimod stimulation); conditions: HEK-Blue cells overexpressing human TLR7, SEAP reporter, gardiquimod 7.5 μM; read-out: TLR7 IC50
T1 construct: host or cells: HEK-Blue cells
T1 sequence (Q9NYK1 27-1049): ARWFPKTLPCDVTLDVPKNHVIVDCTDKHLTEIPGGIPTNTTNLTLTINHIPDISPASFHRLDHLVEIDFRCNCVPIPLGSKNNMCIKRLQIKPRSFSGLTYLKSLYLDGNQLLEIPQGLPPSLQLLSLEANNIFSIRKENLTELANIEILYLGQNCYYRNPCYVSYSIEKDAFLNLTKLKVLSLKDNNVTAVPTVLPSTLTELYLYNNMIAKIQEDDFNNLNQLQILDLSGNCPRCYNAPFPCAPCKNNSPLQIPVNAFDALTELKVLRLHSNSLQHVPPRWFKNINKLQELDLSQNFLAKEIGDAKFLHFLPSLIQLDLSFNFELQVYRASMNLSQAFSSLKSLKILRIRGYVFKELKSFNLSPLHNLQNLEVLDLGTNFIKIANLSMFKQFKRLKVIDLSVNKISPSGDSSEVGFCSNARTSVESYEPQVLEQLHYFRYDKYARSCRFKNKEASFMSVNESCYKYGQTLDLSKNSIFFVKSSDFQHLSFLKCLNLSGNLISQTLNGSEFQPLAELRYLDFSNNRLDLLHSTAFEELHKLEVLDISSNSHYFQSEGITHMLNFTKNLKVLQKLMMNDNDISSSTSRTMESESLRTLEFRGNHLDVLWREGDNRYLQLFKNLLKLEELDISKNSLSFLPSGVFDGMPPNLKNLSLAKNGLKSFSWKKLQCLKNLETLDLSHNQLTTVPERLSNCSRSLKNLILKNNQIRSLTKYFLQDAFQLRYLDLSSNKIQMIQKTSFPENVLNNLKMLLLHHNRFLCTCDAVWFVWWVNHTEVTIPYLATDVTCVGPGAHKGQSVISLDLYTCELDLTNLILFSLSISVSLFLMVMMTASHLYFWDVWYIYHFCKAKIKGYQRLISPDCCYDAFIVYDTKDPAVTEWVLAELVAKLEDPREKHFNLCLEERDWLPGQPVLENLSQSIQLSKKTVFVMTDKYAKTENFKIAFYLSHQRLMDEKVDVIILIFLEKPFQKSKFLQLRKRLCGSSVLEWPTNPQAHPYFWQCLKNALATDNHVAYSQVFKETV
Summary of the method: (§1)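 Screening used HEK-Blue cells overexpressing one human TLR (7, 8 or 9) and an IFN-β minimal promoter–NF-κB/AP-1 SEAP construct. Stimulation lasted 22 h at 37 °C with receptor-specific agonist: gardiquimod, R848 or ODN2006 at 7.5 μM, 15.9 μM and 5 nM.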

human TLR8 = target: T2, human TLR8 (Homo sapiens, UniProt Q9NR97); experiment: TLR8 inhibition reporter assay (HEK-Blue cells, SEAP reporter, R848 stimulation); conditions: HEK-Blue cells overexpressing human TLR8, SEAP reporter, R848 15.9 μM; read-out: TLR8 IC50
T2 construct: host or cells: HEK-Blue cells
T2 sequence (Q9NR97 27-1041): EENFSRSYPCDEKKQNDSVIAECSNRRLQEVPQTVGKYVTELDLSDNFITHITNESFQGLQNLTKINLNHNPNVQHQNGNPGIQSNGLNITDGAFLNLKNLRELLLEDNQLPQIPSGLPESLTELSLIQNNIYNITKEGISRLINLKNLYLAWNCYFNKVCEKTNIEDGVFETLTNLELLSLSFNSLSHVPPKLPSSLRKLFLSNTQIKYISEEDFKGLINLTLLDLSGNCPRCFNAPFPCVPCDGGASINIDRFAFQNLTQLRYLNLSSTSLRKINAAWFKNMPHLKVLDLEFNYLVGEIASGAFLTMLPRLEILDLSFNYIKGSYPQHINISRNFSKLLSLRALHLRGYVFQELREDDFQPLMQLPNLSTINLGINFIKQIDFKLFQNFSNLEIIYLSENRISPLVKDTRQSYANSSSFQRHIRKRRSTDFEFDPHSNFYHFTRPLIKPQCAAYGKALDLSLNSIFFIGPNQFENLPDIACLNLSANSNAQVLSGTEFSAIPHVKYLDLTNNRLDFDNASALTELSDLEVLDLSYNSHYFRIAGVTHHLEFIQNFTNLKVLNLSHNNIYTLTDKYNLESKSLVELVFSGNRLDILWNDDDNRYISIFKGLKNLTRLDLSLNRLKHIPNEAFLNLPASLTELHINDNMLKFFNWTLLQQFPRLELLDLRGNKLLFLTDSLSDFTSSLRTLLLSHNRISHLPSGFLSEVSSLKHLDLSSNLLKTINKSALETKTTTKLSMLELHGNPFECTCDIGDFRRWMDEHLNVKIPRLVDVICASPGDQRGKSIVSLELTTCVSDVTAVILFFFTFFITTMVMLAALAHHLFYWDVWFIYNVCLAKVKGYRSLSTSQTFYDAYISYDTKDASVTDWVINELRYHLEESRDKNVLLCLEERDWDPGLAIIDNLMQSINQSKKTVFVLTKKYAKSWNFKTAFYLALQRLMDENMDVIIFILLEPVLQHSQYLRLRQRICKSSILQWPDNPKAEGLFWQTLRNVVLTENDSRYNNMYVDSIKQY
Summary of the method: as §1

human TLR9 = target: T3, human TLR9 (Homo sapiens, UniProt Q9NR96); experiment: TLR9 inhibition reporter assay (HEK-Blue cells, SEAP reporter, ODN2006 stimulation); conditions: HEK-Blue cells overexpressing human TLR9, SEAP reporter, ODN2006 5 nM
T3 construct: host or cells: HEK-Blue cells
T3 sequence (Q9NR96 26-1032): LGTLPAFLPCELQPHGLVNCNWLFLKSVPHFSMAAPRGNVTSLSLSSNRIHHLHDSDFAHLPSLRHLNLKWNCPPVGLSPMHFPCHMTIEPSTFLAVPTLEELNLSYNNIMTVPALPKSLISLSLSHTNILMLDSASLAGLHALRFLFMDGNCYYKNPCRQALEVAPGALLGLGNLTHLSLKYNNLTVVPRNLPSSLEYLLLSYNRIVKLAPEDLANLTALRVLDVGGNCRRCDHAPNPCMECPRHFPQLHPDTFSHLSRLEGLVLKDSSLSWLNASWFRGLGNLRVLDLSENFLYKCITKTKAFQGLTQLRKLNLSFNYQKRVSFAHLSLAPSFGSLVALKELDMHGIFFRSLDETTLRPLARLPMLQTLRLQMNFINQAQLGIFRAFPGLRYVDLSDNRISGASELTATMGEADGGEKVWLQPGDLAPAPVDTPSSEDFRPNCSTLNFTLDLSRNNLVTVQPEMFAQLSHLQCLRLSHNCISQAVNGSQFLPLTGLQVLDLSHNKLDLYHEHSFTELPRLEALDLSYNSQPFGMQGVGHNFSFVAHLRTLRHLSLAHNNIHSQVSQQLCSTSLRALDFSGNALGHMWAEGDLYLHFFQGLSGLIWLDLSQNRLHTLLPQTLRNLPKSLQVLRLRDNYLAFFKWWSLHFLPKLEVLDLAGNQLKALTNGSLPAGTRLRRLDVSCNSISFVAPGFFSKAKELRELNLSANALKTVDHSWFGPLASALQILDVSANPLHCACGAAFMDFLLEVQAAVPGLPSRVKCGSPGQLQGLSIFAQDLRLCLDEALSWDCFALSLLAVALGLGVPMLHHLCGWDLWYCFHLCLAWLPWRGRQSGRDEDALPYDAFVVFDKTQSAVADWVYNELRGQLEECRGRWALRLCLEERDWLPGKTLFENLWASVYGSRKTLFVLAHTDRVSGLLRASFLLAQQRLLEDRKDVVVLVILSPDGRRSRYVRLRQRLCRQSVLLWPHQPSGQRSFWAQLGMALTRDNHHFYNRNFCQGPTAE
Summary of the method: as §1

| IC50 (human TLR7) [nM] | IC50 (human TLR8) [nM] | IC50 (human TLR9) [µM] | Structure (SMILES) |
| --- | --- | --- | --- |
| 3.63 | 1.4 | 1.46 | COc1cc(-c2[nH]c3sc(C4CCC(N5CCC6(CCNC6)C5)CC4)nc3c2C(C)C)cn2ncnc12 (single isomer, unassigned) [Example 114, 2-(4-(2,7-diazaspiro[4.4]nonan-2-yl)cyclohexyl)-6-isopropyl-5-(8-methoxy-[1,2,4]triazolo[1,5-a]pyridin-6-yl)-4H-pyrrolo[3,2-d]thiazole] |
| 12.6 | 12.9 | 2.25 | COc1cc(-c2[nH]c3sc(C4CCC(N5CC(CO)(CO)C5)CC4)nc3c2C(C)C)cn2ncnc12 (single isomer, unassigned) [Example 67, (1-(4-(6-isopropyl-5-(8-methoxy-[1,2,4]triazolo[1,5-a]pyridin-6-yl)-4H-pyrrolo[3,2-d]thiazol-2-yl)cyclohexyl)azetidine-3,3-diyl)dimethanol] |
| 3.69 | 8.06 | 16.1 | Cc1cc(-c2[nH]c3sc(C4CCN(C5COC5)CC4)nc3c2C(C)C)cn2ncnc12 [Example 20, 6-isopropyl-5-(8-methyl-[1,2,4]triazolo[1,5-a]pyridin-6-yl)-2-(1-(oxetan-3-yl)piperidin-4-yl)-4H-pyrrolo[3,2-d]thiazole] |
| 18.1 | 14.7 | 17 | Cc1cc2ncnn2cc1-c1[nH]c2sc(C3CCC(NC4CCOCC4)CC3)nc2c1C(C)C (single isomer, unassigned) [Example 161, N-(4-(6-isopropyl-5-(7-methyl-[1,2,4]triazolo[1,5-a]pyridin-6-yl)-4H-pyrrolo[3,2-d]thiazol-2-yl)cyclohexyl) tetrahydro-2H-pyran-4-amine] |
| 0.71 | 3.44 | 1.91 | CNC1CCC(c2nc3c(C(C)C)c(-c4cc(OC)c5ncnn5c4)[nH]c3s2)CC1 (single isomer, unassigned) [Example 74, 4-(6-isopropyl-5-(8-methoxy-[1,2,4]triazolo[1,5-a]pyridin-6-yl)-4H-pyrrolo[3,2-d]thiazol-2-yl)-N-methylcyclohexan-1-amine] |
| 5.87 | 4.42 | 42.5 | CCN(C)C1CCC(c2nc3c(C(C)C)c(-c4cn(C)c(=O)c(C)c4C)[nH]c3s2)CC1 (single isomer, unassigned) [Example 247, 5-(2-(4-(ethyl(methyl)amino)cyclohexyl)-6-isopropyl-4H-pyrrolo[3,2-d]thiazol-5-yl)-1,3,4-trimethylpyridin-2(1H)-one] |
| 0.78 | 2.21 | 0.879 | CNCCNC1CCC(c2nc3c(C(C)C)c(-c4cc(OC)c5ncnn5c4)[nH]c3s2)CC1 (single isomer, unassigned) [Example 171, N1-(4-(6-isopropyl-5-(8-methoxy-[1,2,4]triazolo[1,5-a]pyridin-6-yl)-4H-pyrrolo[3,2-d]thiazol-2-yl)cyclohexyl)-N2-methylethane-1,2-diamine] |
| 3.45 | 0.73 | 33.8 | Cc1c(-c2[nH]c3sc(N4CCC(NC5COC5)CC4)nc3c2C(C)C)cn2ncnc2c1C [Example 296, 1-(5-(7,8-dimethyl-[1,2,4]triazolo[1,5-a]pyridin-6-yl)-6-isopropyl-4H-pyrrolo[3,2-d]thiazol-2-yl)-N-(oxetan-3-yl)piperidin-4-amine] |
| 7.5 | 7.11 | 15.8 | Cc1c(-c2[nH]c3sc(N4CCN(C(=O)CN(C)C)C[C@H]4C)nc3c2C(C)C)cn2ncnc2c1C [Example 327, (R)-1-(4-(5-(7,8-dimethyl-[1,2,4]triazolo[1,5-a]pyridin-6-yl)-6-isopropyl-4H-pyrrolo[3,2-d]thiazol-2-yl)-3-methylpiperazin-1-yl)-2-(dimethylamino)ethan-1-one] |
| 3.08 | 33.3 | > 50 | Cc1c(-c2[nH]c3sc(C4CCC(N5CCNC(=O)C5)CC4)nc3c2C(C)C)cn2ncnc2c1C (single isomer, unassigned) [Example 221, 4-(4-(5-(7,8-dimethyl-[1,2,4]triazolo[1,5-a]pyridin-6-yl)-6-isopropyl-4H-pyrrolo[3,2-d]thiazol-2-yl)cyclohexyl) piperazin-2-one] |
| 13.5 | 15.9 | 9.25 | Cc1cc(-c2[nH]c3sc(C(=O)NCCN(C)C)nc3c2C(C)C)cn2ncnc12 [Example 400, N-(2-(dimethylamino)ethyl)-6-isopropyl-5-(8-methyl-[1,2,4]triazolo[1,5-a]pyridin-6-yl)-4H-pyrrolo[3,2-d]thiazole-2-carboxamide] |
| 1.44 | 18.6 | 35.9 | Cc1c(-c2[nH]c3sc(C4CCC(N5CC(F)(F)C5)CC4)nc3c2C(C)C)cn2ncnc2c1C (single isomer, unassigned) [Example 218, 2-(4-(3,3-difluoroazetidin-1-yl)cyclohexyl)-5-(7,8-dimethyl-[1,2,4]triazolo[1,5-a]pyridin-6-yl)-6-isopropyl-4H-pyrrolo[3,2-d]thiazole] |
